The source made the active and inactive calls.
Legend:
[1] = intracellular Trypanosoma cruzi inhibitors in host cells – cell-based, plate reader, cherry-pick samples, set 3, dose response (AID 651818); assay type: functional;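 note: compounds incubated with infected cells for about four days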
[2] = A549 cell cytotoxicity, dose response, cytotoxicity control, plate reader, cherry-pick, antagonist series (AID 743412); assay type: functional, cell-based
H9c2 = experiment: cells; assay type: functional, cell-based; conditions: Rattus norvegicus, H9c2, Myocardium;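 note: confirmatory concentration-response retest of ultra-high-throughput screening hits for modulation of myocardial damage; cell death induced by hydrogen peroxide oxidative stress; compound pretreatment for 60 min then peroxide exposure for 2 h; potency is for protecting the cells against peroxide damage rather than for killing them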
[3] = viability loss in HEK293 cells – cell-based, plate reader, cherry-picked samples, cytotoxicity control, dose response (AID 743446); assay type: functional
[4] = blockers of bursicon-stimulated LGR2 cAMP reporter – cell-based, HEK293, CRE-luciferase reporter, cherry pick, set 2, dose response (AID 743343); assay type: functional;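 note: transfected cells were stimulated with diluted bursicon conditioned medium after compound addition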
P388/ADR = experiment: cells; assay type: functional; conditions: Mus musculus
P388 = experiment: cells; assay type: functional; conditions: Mus musculus
SN12K1 = experiment: cells; assay type: functional; conditions: Homo sapiens
[5] = biological target: T1, Low molecular weight phosphotyrosine protein phosphatase (Homo sapiens, UniProt P24666); assay type: functional; conditions: read-out: IC50_Mean;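 note: Dose-response confirmation assay measuring inhibition of LMPTP enzyme activity by fluorescence intensity read-out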
T1 sequence (P24666 whole entry): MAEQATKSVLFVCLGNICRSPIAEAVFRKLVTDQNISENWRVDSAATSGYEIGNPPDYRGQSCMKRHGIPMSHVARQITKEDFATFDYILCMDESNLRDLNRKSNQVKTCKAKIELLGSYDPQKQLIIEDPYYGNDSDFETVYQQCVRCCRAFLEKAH

Large T antigen = Large T antigen (Simian virus 40, UniProt P03070); assay type: functional, Betapolyomavirus macacae;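 note: Confirmatory-stage PubChem screen for compounds that inhibit SV40 T antigen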
[6] = biological target: Glucose-6-phosphate 1-dehydrogenase (Homo sapiens, UniProt P11413); experiment: inhibition of Homo sapiens G6PD, dose series – biochemical, fluorescence, selectivity assay for P. falciparum G6PD inhibitor project, dose response (AID 504792); assay type: functional
Nonstructural protein 1 = Nonstructural protein 1 (Influenza A virus, UniProt Q194T2); assay type: functional, Influenza A virus (A/California/07/2009(H1N1))
Cytochrome P450 2D6 = Cytochrome P450 2D6 (Homo sapiens, UniProt P10635);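 note: CYP2D6 member of a cytochrome P450 panel assay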
[7] = toxicity toward HepG2 liver cells – cell-based, plate reader, cherry-pick, antagonist series, cytotoxicity control, dose response (AID 743416); assay type: functional
[8] = blockade of melanocortin 4 receptor signaling – cell-based, plate reader, cherry pick, counter-screen for LGR2 antagonist project, dose response (AID 743444); assay type: functional;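 note: transfected HEK 293 cells stimulated with alpha-MSH peptide; potency of inhibitors of the alpha-MSH evoked signal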
[9] = biological target: T2, Corticotropin-releasing factor receptor 2/Corticotropin-releasing factor-binding protein (Homo sapiens, UniProt P24387+Q13324); experiment: activators of CRF receptor 2 with binding protein – uHTS hits, confirmation (AID 602473); assay type: functional; conditions: read-out: EC50_Mean
T2 sequence (Q13324 whole entry): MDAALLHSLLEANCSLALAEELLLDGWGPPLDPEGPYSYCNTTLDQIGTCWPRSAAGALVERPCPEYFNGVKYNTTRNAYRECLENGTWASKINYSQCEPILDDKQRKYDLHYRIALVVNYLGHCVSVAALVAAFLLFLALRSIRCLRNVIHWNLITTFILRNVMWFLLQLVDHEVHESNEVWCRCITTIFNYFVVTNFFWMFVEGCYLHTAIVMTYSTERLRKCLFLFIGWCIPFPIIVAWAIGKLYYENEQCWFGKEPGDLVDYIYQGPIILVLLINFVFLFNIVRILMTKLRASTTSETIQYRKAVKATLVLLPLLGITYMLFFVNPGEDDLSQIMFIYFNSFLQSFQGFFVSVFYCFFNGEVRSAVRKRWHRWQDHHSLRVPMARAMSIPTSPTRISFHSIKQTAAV
T2 sequence (P24387 whole entry): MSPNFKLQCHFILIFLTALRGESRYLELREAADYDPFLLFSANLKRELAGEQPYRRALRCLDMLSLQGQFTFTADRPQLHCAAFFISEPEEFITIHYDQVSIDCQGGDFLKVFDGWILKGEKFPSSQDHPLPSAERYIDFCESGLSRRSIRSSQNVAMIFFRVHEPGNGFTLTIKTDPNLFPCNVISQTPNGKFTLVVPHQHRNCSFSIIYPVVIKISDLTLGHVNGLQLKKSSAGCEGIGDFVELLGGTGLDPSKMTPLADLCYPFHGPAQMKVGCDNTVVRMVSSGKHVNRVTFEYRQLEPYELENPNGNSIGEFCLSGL

[10] = biological target: T2, Corticotropin-releasing factor receptor 2/Corticotropin-releasing factor-binding protein; experiment: Dose Response confirmation of uHTS hits for small molecule antagonists of the CRF-binding protein and CRF-R2 receptor complex.; assay type: functional; conditions: read-out: IC50_Mean
[11] = biological target: T3, Tyrosyl-DNA phosphodiesterase 2 (Homo sapiens, UniProt O95551); experiment: potency against TDP2 phosphodiesterase activity – biochemical, epi absorbance, IC50, dose response (AID 743297)
T3 sequence (O95551 whole entry): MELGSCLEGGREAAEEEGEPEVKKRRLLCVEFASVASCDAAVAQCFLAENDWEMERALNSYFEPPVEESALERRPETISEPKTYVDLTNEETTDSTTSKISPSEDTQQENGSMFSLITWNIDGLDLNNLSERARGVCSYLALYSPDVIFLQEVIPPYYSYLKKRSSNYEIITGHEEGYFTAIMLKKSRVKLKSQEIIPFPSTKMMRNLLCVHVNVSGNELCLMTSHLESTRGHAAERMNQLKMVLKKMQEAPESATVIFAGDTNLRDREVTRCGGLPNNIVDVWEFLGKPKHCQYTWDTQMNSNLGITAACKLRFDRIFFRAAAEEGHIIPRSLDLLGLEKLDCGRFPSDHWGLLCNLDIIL

[12] = Luminescent dose response cell-based high throughput screening assay for inhibitors of the Janus kinase 2 mutant JAK2V617F. [Related pubchem assays: 1446 (Primary screen.), 1521 (Confirmation assay.), 1486 (Counter screen.)]; assay type: functional
[13] = Luminescence Cell-Based Dose Response HTS to Identify Inhibitors of 5'UTR Stem-Loop Driven Prion Protein mRNA Translation in H4 Neuroglioblastoma Cells. [Related pubchem assays: 1827 (Project Summary), 1813 (Primary HTS)]; assay type: functional
[14] = alpha-synuclein stem-loop luciferase translation blockers – H4 neuroglioma cells, luminescence, confirmation (AID 1988); assay type: functional, cell-based
[15] = luciferase reporter signal suppression in cells – H4 neuroglioma cells, luminescence, dose response (AID 1990); assay type: functional, cell-based
[16] = biological target: T4, Carboxy-terminal domain RNA polymerase II polypeptide A small phosphatase 1 (Homo sapiens, UniProt Q9GZU7); experiment: CTDSP1 inhibitors, concentration-response, biochemical, absorbance readout, ultra-high-throughput screen actives (AID 540297); assay type: functional
T4 sequence (Q9GZU7 whole entry): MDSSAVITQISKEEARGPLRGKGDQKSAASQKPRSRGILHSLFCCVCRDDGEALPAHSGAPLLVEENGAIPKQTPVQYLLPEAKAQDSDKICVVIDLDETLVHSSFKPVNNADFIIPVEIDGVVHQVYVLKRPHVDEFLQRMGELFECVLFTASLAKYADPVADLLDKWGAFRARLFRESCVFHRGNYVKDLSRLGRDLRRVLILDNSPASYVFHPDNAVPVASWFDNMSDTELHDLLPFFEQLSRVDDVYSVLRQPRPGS

Glucose-6-phosphate 1-dehydrogenase, sequence (P11413 whole entry): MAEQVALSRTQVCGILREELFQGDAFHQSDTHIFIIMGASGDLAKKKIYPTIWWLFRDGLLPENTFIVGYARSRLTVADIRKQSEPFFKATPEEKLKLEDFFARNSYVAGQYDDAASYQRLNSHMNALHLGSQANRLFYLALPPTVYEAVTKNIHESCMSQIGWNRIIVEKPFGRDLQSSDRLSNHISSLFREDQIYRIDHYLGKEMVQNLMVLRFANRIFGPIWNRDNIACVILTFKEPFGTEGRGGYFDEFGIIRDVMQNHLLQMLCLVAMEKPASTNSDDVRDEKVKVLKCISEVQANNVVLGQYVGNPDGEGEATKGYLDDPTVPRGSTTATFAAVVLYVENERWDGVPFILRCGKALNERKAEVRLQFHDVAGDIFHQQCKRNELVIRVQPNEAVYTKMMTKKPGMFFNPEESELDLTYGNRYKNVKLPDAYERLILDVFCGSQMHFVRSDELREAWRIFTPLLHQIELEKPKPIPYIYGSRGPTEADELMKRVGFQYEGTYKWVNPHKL
Nonstructural protein 1, sequence (Q194T2 whole entry): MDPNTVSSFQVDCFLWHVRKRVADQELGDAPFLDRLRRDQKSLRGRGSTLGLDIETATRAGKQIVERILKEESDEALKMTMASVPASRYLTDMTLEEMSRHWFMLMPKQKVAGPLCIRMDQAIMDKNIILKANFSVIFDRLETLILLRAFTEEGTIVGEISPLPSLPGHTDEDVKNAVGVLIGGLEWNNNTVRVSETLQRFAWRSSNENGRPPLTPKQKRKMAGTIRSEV
Cytochrome P450 2D6, sequence (P10635 whole entry): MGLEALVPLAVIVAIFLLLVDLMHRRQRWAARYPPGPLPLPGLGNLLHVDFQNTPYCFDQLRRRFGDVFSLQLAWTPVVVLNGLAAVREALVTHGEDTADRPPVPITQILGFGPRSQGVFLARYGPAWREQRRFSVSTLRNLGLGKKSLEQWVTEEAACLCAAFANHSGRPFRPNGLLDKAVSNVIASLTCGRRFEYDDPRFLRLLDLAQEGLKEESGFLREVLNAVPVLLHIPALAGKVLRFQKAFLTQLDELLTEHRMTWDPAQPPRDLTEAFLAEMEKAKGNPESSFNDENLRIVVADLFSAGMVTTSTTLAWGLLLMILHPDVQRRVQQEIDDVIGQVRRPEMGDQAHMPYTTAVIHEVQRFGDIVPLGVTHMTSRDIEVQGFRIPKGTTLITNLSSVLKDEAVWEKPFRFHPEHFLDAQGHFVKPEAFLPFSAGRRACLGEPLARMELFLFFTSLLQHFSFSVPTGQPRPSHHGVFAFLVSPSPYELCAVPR
Large T antigen, sequence (P03070 whole entry): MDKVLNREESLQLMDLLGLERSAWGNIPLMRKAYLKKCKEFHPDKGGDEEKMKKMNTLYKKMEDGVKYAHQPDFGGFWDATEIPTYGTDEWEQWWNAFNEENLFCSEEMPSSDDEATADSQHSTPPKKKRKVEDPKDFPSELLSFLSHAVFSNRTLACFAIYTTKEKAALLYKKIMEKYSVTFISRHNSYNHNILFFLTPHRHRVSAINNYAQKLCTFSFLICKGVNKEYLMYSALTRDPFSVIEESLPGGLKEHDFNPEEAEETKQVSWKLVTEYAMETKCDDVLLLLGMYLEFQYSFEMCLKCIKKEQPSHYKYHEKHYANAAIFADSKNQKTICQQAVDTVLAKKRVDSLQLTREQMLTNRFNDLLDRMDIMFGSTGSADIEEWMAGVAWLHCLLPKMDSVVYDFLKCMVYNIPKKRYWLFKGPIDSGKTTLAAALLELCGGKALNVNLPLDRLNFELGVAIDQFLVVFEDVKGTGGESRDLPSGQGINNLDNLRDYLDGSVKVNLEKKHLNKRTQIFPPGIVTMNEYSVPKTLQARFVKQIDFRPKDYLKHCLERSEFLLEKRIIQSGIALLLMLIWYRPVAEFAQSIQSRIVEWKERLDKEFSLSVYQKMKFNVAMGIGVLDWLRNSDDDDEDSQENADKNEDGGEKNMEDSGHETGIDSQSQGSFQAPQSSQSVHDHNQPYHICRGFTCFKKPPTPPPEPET

With `C[C@H]1CN([C@@H](C)CO)C(=O)Cc2cc(NC(=O)Nc3ccc4c(c3)OCO4)ccc2O[C@H]1CN(C)Cc1ccc(C(F)(F)F)cc1` the AC50 [1] was 7.92 µM (active).
In the case of `COc1ccc(-c2cc(-c3nnc(COC(=O)C4CC4)o3)c3ccccc3n2)cc1OC`, the AC50 [2] is reported as > 52 µM (inactive), the IC50 (H9c2) is reported as > 79 µM (inactive) and the AC50 [3] is reported as > 52 µM (inactive). The AC50 [4] was 43.2 µM (active).
In the case of `CC(=O)OC1CCC2(C)C3CCC4(C)C(c5ccc(=O)oc5)CC5OC54C3CCC2(O)C1` (configuration not stated), the GI50 (P388/ADR) is reported as > 200 µM (inactive), the GI50 (P388) is reported as > 200 µM (inactive) and the GI50 (SN12K1) is reported as 0.948 µM (active).
With `Nc1ccc2[nH]c(CCCCCCCCc3nc4cc(N)ccc4[nH]3)nc2c1` the IC50 [5] was 11.4 µM (active) and the IC50 (Large T antigen) was 18.7 µM (active).
In the case of `O=C(Nc1ccccn1)c1sc2cc([N+](=O)[O-])ccc2c1Cl`, the IC50 [6] is reported as > 80 µM (inactive).
In the case of `Cc1c(N/N=C2\C(=O)NC(=O)N(c3ccc(Br)cc3)C2=O)c(=O)n(-c2ccccc2)n1C`, the IC50 (Nonstructural protein 1) is reported as 6.25 µM (active).
For `Cc1noc(C)c1S(=O)(=O)Nc1ccc2c(c1)CC(=O)N([C@H](C)CO)C[C@@H](C)[C@H](CN(C)Cc1ccc(Oc3ccccc3)cc1)O2`, the AC50 [1] was 6.34 µM (active).
With `Cc1cc(N2CCN(C(=O)Nc3ccccc3C#N)CC2)c2ccccc2n1` the IC50 [5] was 21.3 µM (inactive).
With `Cc1ccccc1OCC(=O)NCC(=O)OCC(=O)c1ccc([N+](=O)[O-])cc1` the IC50 [6] was > 80 µM (inactive).
For `CCN(CC)CC[n+]1ccc2c(C)c3[nH]c4ccc(O)cc4c3c(C)c2c1`, the GI50 (P388/ADR) was 2.21 µM (inactive), the AC50 (Cytochrome P450 2D6) was 6.31 µM (inconclusive) and the GI50 (P388) was 0.012 µM (active). The GI50 (SN12K1) was 0.948 µM (active).
With `CC(=O)Nc1cc2c(cc1[N+](=O)[O-])-c1ccccc1C2O` (configuration not stated) the IC50 [6] was > 80 µM (inactive).
With `C[C@H](CO)N1C[C@H](C)[C@H](CN(C)Cc2ccncc2)Oc2ncc(C#CCC3CCCCC3)cc2C1=O` the AC50 [2] was 16.1 µM (active), the AC50 [7] was 15.3 µM (active) and the AC50 [8] was 63.3 µM (active). The AC50 [4] was 30 µM (active).
For `CN(C)CC1CCCC(CN(C)C)C1=O` (configuration not stated), the GI50 (P388/ADR) was 0.0164 µM (active), the GI50 (P388) was 0.0614 µM (active) and the GI50 (SN12K1) was 16.3 µM (inactive).
With `Cc1ccc(N2C(=O)C3CSCN3C2=O)cc1` (configuration not stated) the GI50 (P388/ADR) was > 100 µM (inactive), the GI50 (P388) was > 100 µM (inactive) and the GI50 (SN12K1) was > 100 µM (inactive).
With `CCOC(=O)Nc1ccc2c(c1)N(C(=O)CCN(CC)CC)c1ccccc1S2` [ETHACIZINE] the GI50 (P388) was 9.46 µM (inactive) and the GI50 (SN12K1) was 33.6 µM (inactive).
For `COC1(OC)C=CC(=O)C=C1NC(=O)c1ccccc1OC(C)=O`, the EC50 [9] was > 53 µM (inactive), the IC50 [10] was > 47.1 µM (inactive) and the IC50 [6] was > 80 µM (inactive).
In the case of `CC1CN(c2ccccc2)NC1=O` (configuration not stated), the IC50 [6] is reported as 41.2 µM (inactive).
With `CC1=NN(c2ccc(C)c(C)c2)C(=O)/C1=C/c1ccc2c(c1)n(C)c(=O)n2C` the IC50 [11] was > 128 µM (inactive).
In the case of `C[C@H](CO)N1C[C@H](C)[C@H](CN(C)Cc2ccc(-c3ccccc3)cc2)Oc2c(NC(=O)Nc3ccc(C(F)(F)F)cc3)cccc2C1=O`, the AC50 [1] is reported as 6 µM (active).
For `Oc1ccc(/C=N/N2CCN(C3c4ccccc4-c4ccccc43)CC2)cc1O`, the IC50 [12] was 3.62 µM (active).
With `C[C@@H]1CN([C@H](C)CO)C(=O)c2cccc(NC(=O)Nc3ccc4c(c3)OCO4)c2O[C@@H]1CN(C)Cc1ccc(C(=O)Nc2ccccc2N)cc1` the AC50 [1] was 2.84 µM (active).
For `Cc1ccccc1N/C(SCc1cccc(Br)c1)=C(/C#N)C(N)=O`, the IC50 [6] was > 80 µM (inactive).
In the case of `O=C(CSc1n[nH]c(-c2ccccn2)n1)Nc1ccc(F)cc1`, the EC50 [13] is reported as 11.5 µM (active), the EC50 [14] is reported as > 120 µM (not active) and the EC50 [15] is reported as 12.6 µM (active). The IC50 (Nonstructural protein 1) was 5.65 µM (active).
With `CC1=C2C(O)C(C(C)C(=O)NC(C)C)CCC2(C)C=CC1=O` (configuration not stated) the GI50 (P388/ADR) was > 100 µM (inactive), the GI50 (P388) was > 100 µM (inactive) and the GI50 (SN12K1) was > 100 µM (inactive).
With `O=C(Nc1ccc(S(=O)(=O)Nc2nccs2)cc1)c1nn(-c2ccc(F)cc2)ccc1=O` the IC50 [16] was 4.55 µM (active) and the IC50 [5] was 22.3 µM (inactive).
For `O=C(Nc1nc(-c2ccccn2)cs1)c1cc(S(=O)(=O)N2CCOCC2)ccc1F`, the IC50 (H9c2) was 39.8 µM (inactive) and the IC50 (Nonstructural protein 1) was 7.21 µM (active).
